In publication PMC5789826, “Structure-guided design of an Hsp90β N-terminal isoform-selective inhibitor” (Nature Communications, 2018):
Where “and” joins values, the source holds several entries; their conditions need not be identical. Equal entries are not always repeated. Where two headings read alike, the source gives them in different places. Each block holds one compound with its values, some of them ahead of it.

Legend:
[1] = target: Hsp90α (Homo sapiens, UniProt P07900); test: Fluorescence polarization assay (FITC-GDA tracer displacement), Hsp90α; assay type: binding; settings: for % Polarization to DMSO control: triplicate wells
Protocol: (§1) Compounds were tested in triplicate wells (1% DMSO final concentration). For each plate, wells containing buffer only (background), tracer in buffer only (low polarization control), and protein and tracer in buffer with 1% DMSO (high polarization control) were included. Plates were incubated at 4 °C with rocking for 24 h. […] Polarization values were correlated to % tracer bound and compound concentrations. The concentration at which the tracer was 50% displaced by the inhibitor was determined using Graphpad Prism.

[2] = target: Hsp90β (Homo sapiens, UniProt P08238); test: Fluorescence polarization assay (FITC-GDA tracer displacement), Hsp90β; assay type: binding; settings: for selectivity for Hsp90β: Hsp90β versus Hsp90α, from Kd values; for % Polarization to DMSO control: triplicate wells
Hsp90β, sequence (P08238 whole entry): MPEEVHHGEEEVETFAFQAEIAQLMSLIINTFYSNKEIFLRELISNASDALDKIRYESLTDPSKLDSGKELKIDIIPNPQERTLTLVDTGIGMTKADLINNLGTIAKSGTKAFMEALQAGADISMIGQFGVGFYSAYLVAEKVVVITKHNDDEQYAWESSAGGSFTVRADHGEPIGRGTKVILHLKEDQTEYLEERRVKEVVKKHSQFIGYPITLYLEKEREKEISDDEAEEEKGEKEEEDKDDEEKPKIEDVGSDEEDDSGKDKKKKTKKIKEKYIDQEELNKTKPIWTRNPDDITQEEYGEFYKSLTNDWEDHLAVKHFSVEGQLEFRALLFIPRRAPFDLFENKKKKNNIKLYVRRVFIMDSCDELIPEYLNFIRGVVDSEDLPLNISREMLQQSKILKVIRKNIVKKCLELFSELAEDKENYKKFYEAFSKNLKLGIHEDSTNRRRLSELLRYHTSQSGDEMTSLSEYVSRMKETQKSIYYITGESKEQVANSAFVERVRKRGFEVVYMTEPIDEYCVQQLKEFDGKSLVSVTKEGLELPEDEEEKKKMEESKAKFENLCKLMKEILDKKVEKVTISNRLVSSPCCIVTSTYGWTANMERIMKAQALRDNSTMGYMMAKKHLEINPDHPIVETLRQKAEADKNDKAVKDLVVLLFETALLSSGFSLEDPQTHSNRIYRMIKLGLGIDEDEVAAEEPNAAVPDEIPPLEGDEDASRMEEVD
Protocol: as §1

[3] = fluorescence polarization, apparent Kd, read-out: Kd Hsp90α
[4] = fluorescence polarization, apparent Kd, read-out: Kd Hsp90β

SMILES: CC(C)c1ccc(O)c(C(=O)N2Cc3ccccc3C2)c1 [Compound 1]
% Polarization to DMSO control ([1]; Suppl Table 10, 1 0.5 μM): 84.59% and 83.37% and 82.16% | % Polarization to DMSO control ([1]; Suppl Table 10, 1 1 μM): 70.63% and 71.84% and 71.69% | % Polarization to DMSO control ([1]; Suppl Table 10, 1 5 μM): 31.78% and 33.90% and 37.85% | % Polarization to DMSO control ([1]; Suppl Table 10, 1 10 μM): 22.83% and 17.67% and 25.25% | % Polarization to DMSO control ([1]; Suppl Table 10, 1 25 μM): 16.45% and 15.39% and 18.58% | % Polarization to DMSO control ([1]; Suppl Table 10, 1 50 μM): 11.45% and 12.05% and 8.56% | % Polarization to DMSO control ([1]; Suppl Table 10, 1 100 μM): 9.47% and 8.26% | Kd [1, 3]: 3210 nM | selectivity for Hsp90β [2]: ~ 2 fold | % Polarization to DMSO control ([2]; Suppl Table 11, 1 0.5 μM): 68.22% and 73.53% and 68.55% | % Polarization to DMSO control ([2]; Suppl Table 11, 1 1 μM): 60.93% and 62.75% and 64.41% | % Polarization to DMSO control ([2]; Suppl Table 11, 1 5 μM): 23.80% and 23.30% and 19.99% | % Polarization to DMSO control ([2]; Suppl Table 11, 1 10 μM): 15.34% and 18.00% and 10.37% | % Polarization to DMSO control ([2]; Suppl Table 11, 1 25 μM): 12.53% and 4.40% and 5.73% | % Polarization to DMSO control ([2]; Suppl Table 11, 1 50 μM): 5.73% and 5.90% and 4.40% | % Polarization to DMSO control ([2]; Suppl Table 11, 1 100 μM): 8.22% and 4.90% and 9.38% | Kd [2, 4]: 1630 nM

SMILES: CC(C)c1cc(C(=O)N2Cc3ccccc3C2)c(O)cc1CC#N [Compound 2]
Kd [1]: 2280 ± 120 nM | % Polarization to DMSO control ([1]; Suppl Table 9, 2 0.1 μM): 95.62% and 98.23% and 93.53% | % Polarization to DMSO control ([1]; Suppl Table 9, 2 0.5 μM): 78.89% and 78.37% and 75.58% | % Polarization to DMSO control ([1]; Suppl Table 9, 2 1 μM): 66.18% and 68.79% and 67.22% | % Polarization to DMSO control ([1]; Suppl Table 9, 2 5 μM): 22.97% and 29.94% | Kd [2]: 970 nM | selectivity for Hsp90β [2]: ~ 2.5 fold | % Polarization to DMSO control ([2]; Suppl Table 8, 2 0.1 μM): 90.36% and 90.17% and 91.52% | % Polarization to DMSO control ([2]; Suppl Table 8, 2 0.5 μM): 65.62% and 68.90% and 70.45% | % Polarization to DMSO control ([2]; Suppl Table 8, 2 1 μM): 47.25% and 50.54% and 49.96% | % Polarization to DMSO control ([2]; Suppl Table 8, 2 5 μM): 12.84% and 16.90% and 23.47% | % Polarization to DMSO control ([2]; Suppl Table 8, 2 10 μM): 4.14% and 8.59% and 10.52%

Kd [1]: > 25000 nM | binding to Hsp90α ([1]; at 10 μM): did not bind | Kd [2]: > 25000 nM | binding to Hsp90β ([2]; at 10 μM): did not bind
SMILES: COCc1cc(O)c(C(=O)N2Cc3ccccc3C2)cc1C(C)C [Compound 3]

SMILES: CC(C)c1cc(C(=O)N2Cc3ccccc3C2)c(O)cc1C=O [Compound 4]
Kd ([1]; Kd Hsp90α): 1550 nM and 1220 nM

Kd ([2]; Kd Hsp90β, fluorescence polarization, apparent Kd): 4270 nM | % Polarization to DMSO control ([2]; Suppl Table 5, 5 1 μM): 73.89% and 76.47% and 73.55% | % Polarization to DMSO control ([2]; Suppl Table 5, 5 5 μM): 48.11% and 44.50% and 46.91% | % Polarization to DMSO control ([2]; Suppl Table 5, 5 10 μM): 27.82% and 30.40% and 31.26% | % Polarization to DMSO control ([2]; Suppl Table 5, 5 25 μM): 13.21% and 21.12% and 17.17% | % Polarization to DMSO control ([2]; Suppl Table 5, 5 50 μM): 21.98% and 21.29%
SMILES: CC(C)c1cc(C(=O)N2Cc3ccccc3C2)c(O)c(CO)c1O [Compound 5]

SMILES: CC(C)c1cc(C(=O)N2Cc3ccc(F)cc3C2)c(O)c2cnoc12 [Compound 6b]
% Polarization to DMSO control ([1]; Suppl Table 12, 6b 0.125 μM): 101. 64% and 98.69% and 98.03% | % Polarization to DMSO control ([1]; Suppl Table 12, 6b 0.5 μM): 97.54% and 93.76% and 98.36% | % Polarization to DMSO control ([1]; Suppl Table 12, 6b 1 μM): 98.19% and 97.05% and 96.39% | % Polarization to DMSO control ([1]; Suppl Table 12, 6b 3 μM): 87.85% and 82.27% and 73.25% | % Polarization to DMSO control ([1]; Suppl Table 12, 6b 10 μM): 66.68% and 53.88% and 63.89% | % Polarization to DMSO control ([1]; Suppl Table 12, 6b 25 μM): 41.57% and 41.90% and 42.23% | % Polarization to DMSO control ([1]; Suppl Table 12, 6b 75 μM): 20.07% and 24.50% and 20.73% | Kd [1, 3]: 18200 nM | selectivity over Hsp90α and Grp94 ([2]; Hsp90β versus Hsp90α and Grp94): ~ 50 fold | % Polarization to DMSO control ([2]; Suppl Table 13, 6b 0.125 μM): 80.92% and 79.55% and 79.72% | % Polarization to DMSO control ([2]; Suppl Table 13, 6b 0.5 μM): 44.66% and 45.17% | % Polarization to DMSO control ([2]; Suppl Table 13, 6b 1 μM): 27.05% and 23.28% and 31.32% | Kd ([2]; fluorescence polarization, apparent Kd, value in nM, read-out: Kd Hsp90β): 180 nM | Kd [2, 4]: 440 nM
